Here are results for 1 compound from patent US12697336B2, “RUC-4 formulations” (CeleCor Therapeutics, Inc., priority 2021, dated 2026).

Data set [1] can be described thus: Example 1 formulation stability test: overnight (~18 hours) storage at −20° C., 5° C. and 20° C., visual observation. Format: physicochemical. The settings on record: pH 4.75. The procedure:
Formulation solutions as described in Table 3 below were prepared and divided in to three equal portions that were stored overnight (~18 hours) at −20° C., 5° C. and 20° C., respectively. The formulations were observed, and the characteristics reported in Table 3 were noted, immediately for RT, immediately upon removing 5° C. formulations from refrigerator, and upon thawing of −20° C. formulations. Clear solutions of Compound (1) were obtained at pH 4.75 at concentrations of ≤17.5 mg/mL.

Data set [2] is described as follows: Solubility of Compound (1) in acetic acid. The settings on record: organic solvent or mixture, read-out: Solubility in acetic acid (obtainable solution concentration). Format: physicochemical. The procedure: In particular, solutions of greater than 300 mg/mL are obtainable.

Take `NCC(=O)Nc1cncc(-c2nn3c(=O)cc(N4CCNCC4)nc3s2)c1` [Compound (1)]: the “Concentration at which clear solutions were obtained” value in data set [1] was at most 17500 µg/mL. Besides, the solubility in data set [2] was over 300 mg/mL.
